Source: patent US20180110796A1, “COMPOSITIONS AND METHODS FOR THE TREATMENT OF HBV INFECTION” (Spring Bank Pharmaceuticals, Inc., priority 2015, published 2018)

Experiments:
[1] = test system: wild type HBV or resistant variants of HBV (polymerase M204V, M204I, L180M, L180M/M204V, N236T); test: Antiviral assays in cells chronically infected with wild type HBV or resistant variants (Example 4); type: cell-based; details: added to the cells daily for nine consecutive days
Description: Antiviral assays were carried out in cells chronically infected with resistant variants of HBV. In order to gauge the efficacy of Formula (IIa) and the antiviral nucleoside analogs lamivudine (3TC) and adefovir dipivoxil (ADV) against the tested strains, the in vitro activity (EC50, μM) was determined using six different cell samples chronically infected with HBV. Each cell sample was infected with either wild type HBV or a resistant variant of HBV, wherein the resistant variants comprise mutations in the HBV polymerase (P) at the following amino acid positions: M204V, M204I, L180M, L180M/M204V, and N236T. In each assay, Formula (IIa), 3TC, or ADV was added to the cells daily for nine consecutive days.

[2] = test system: HBV-infected primary human hepatocytes; test: In vitro studies using HBV-infected primary human hepatocytes; type: cell-based
From the text: (§1) During viral infections, virus-derived nucleic acids (both DNA and RNA) are mainly sensed by certain pattern-recognition receptors such as RIG-1 and NOD2 which are located within the cytoplasm of cells, including hepatocytes. Binding of these viral sensor proteins to PAMP within the viral nucleic acids activates downstream signaling pathways which include the mitochondrial antiviral signaling protein (MAVS) leading to the induction of the IFN-regulatory factor-3 (IRF-3) and NF-κB dependent gene expression, and the subsequent production of type I and type III IFNs and inflammatory cytokines. Thus, sensing of viral nucleic acids is a crucial process to induce antiviral innate immune responses for limiting viral replication and for activation of adaptive immunity. For HBV it has been recently shown that RIG-1 sensing is mediated through recognition of the 5′-end ϵ region of the HBV pg RNA which leads to the induction of type III rather than type I IFNs in human primary hepatocytes in response to in vitro infection. In addition, activated RIG-1 is able to counter-act the interaction of the HBV polymerase protein with the HBV pgRNA in an IFN pathway independent manner resulting in suppressed viral replication. […]

HCV, Norovirus and RSV = test: In vitro and in vivo studies against RNA viruses
From the text: as §1

[3] = test system: woodchuck hepatitis virus (WHV); test: Formula (IIa) in combination with entecavir, sequential oral treatment of chronic WHV carrier woodchucks (Example 3); type: in vivo, woodchuck (Marmota monax)
From the text: Ten (10) woodchucks chronically infected with WHV were used. Woodchucks were born in captivity and were inoculated at 3 days of age with cWHV7P2a inoculum, then reared until 11 months of age. Prior to the study, woodchucks were confirmed as established chronic carriers of WHV based on established criteria including the presence of WHV surface antigen (WHsAg), antibody against […], and WHV DNA. Woodchucks used in the study were of both gender and approximately between 12 and 14 months of age at the start of the study.
Two (2) groups of five (5) chronic WHV carrier woodchucks each were used in the study:
Group 1 was orally treated for 4 weeks with ETV at a daily dose of 0.5 mg/kg starting at T0, followed by add-on treatment with Formula (IIa) for 12 weeks at a daily dose of 30 mg/kg. Woodchucks were then followed for a total of 24 weeks.
Group 2 was orally treated for 12 weeks with Formula (IIa) at a daily dose of 30 mg/kg starting at T0, followed by add-on treatment with ETV for 4 weeks at a daily dose of 0.5 mg/kg. Woodchucks were then also followed for a total of 24 weeks.
Formula (IIa) was supplied as a pre-weighed powder in individual containers. An amount of powder sufficient to treat all 10 pre-weighed woodchucks per day with Formula (IIa) was mixed directly with woodchuck diet powder (Dyets Inc., Bethlehem, Pa.) and then suspended with HPLC water. The drug was orally administered with a dose syringe at T0 (Group 2) or after 4 weeks of treatment with ETV (Group 1), and thereafter every day for 12 weeks (84 days). Drug dosing was then followed by an extra 2 ml of woodchuck liquid diet to ensure complete consumption of Formula (IIa).
ETV was provided as powder. An amount of powder sufficient to treat all 10 woodchucks per day was suspended in isotonic saline at a concentration of 0.5 mg/ml. A volume (ml) of drug solution equivalent to the body weight (kg) of an individual woodchuck was then mixed with approximately 3-5 ml of woodchuck liquid diet and administered orally with a dose syringe at T0 (Group 1) or after 12 weeks of treatment with Formula (IIa) (Group 2), and thereafter every day for 4 weeks (28 days). ETV dosing was followed by an extra 2 ml of woodchuck liquid diet to ensure complete consumption of drug.
Prior to administration of Formula (IIa) or ETV at T0, then weekly until the end of the study at week 24, whole blood samples were drawn from each woodchuck under ketamine/xylazine anesthesia for determinations of serum WHV DNA, WHsAg, and anti-WHs (see Summary Table below). […] Blood samples were kept at room temperature following collection and serum harvested upon observation of clot retraction. Harvested serum was transferred to microcentrifuge tubes and stored frozen at −70° C. until use.
The induction of an innate immune response in peripheral blood and liver of woodchucks by combination treatment with Formula (IIa) and ETV were determined via real time PCR-based assays. Whole blood samples were obtained prior to the start of treatment with Formula (IIa) at T0, and then at weeks 4, 10, 16, 20, and 24 (Group 1) or at weeks 6, 12, 16, 20, and 24 (Group 2) (see Summary Table below). Whole blood was drawn into PAXgene blood tubes at the indicated time points and stored at −70° C. until use. Total RNA was isolated from whole blood and treated with DNase using the PAXgene Blood miRNA Kit (Quiagen). This was followed by reverse transcription of mRNA into cDNA and amplification of host immune response genes by real time PCR. Woodchuck cytokine and interferon-stimulated genes included IFN-α, IFN-β, interleukin 6 (IL-6), 2′-5′-oligoadenylate synthetase 1 (OAS-1), interferon-induced 17 kDa protein (ISG15), and interferon gamma-induced protein 10 (IP-10or CXCL10). Woodchuck 18S rRNA expression was used to normalize target gene expression. […]

[4] = test system: woodchuck hepatitis virus (WHV); test: Antiviral efficacy of oral Formula (IIa) in chronic WHV carrier woodchucks (Example 2); type: in vivo, woodchuck (Marmota monax); details: for weeks per approximately 1 log10 decline of serum WHV DNA: 12-week treatment; for average reduction of serum WHV DNA at the end of treatment: week 12, vs T0; for maximum reduction of hepatic WHV DNA RI from pretreatment level / maximum reduction of hepatic WHV RNA from pretreatment level / maximum reduction of hepatic WHV cccDNA from pretreatment level: after 12 weeks; for maximum reduction of serum WHsAg: after 12 weeks of treatment
[5] = 30 mg/kg daily oral, week 12, Group 2 before add-on ETV
[6] = 15 and 30 mg/kg, all treated woodchucks

COC1[C@@H](OP(=O)(OC[C@H]2O[C@@H](n3cnc4c(N)ncnc43)C[C@H]2O)SCOC(=O)OC(C)C)[C@@H](CO)O[C@H]1n1ccc(=O)[nH]c1=O (stereo partly shown) [Formula (IIa)]
efficacy against cells infected with wild type and resistant HBV strains (in vitro activity, FIG. 31) [1]: efficacious against cells infected with all the HBV strains tested
HBV DNA levels [2]: significant reduction
secreted HBsAg and HBV e antigen (HBeAg) ([2]; similar to IFN-α treatment): declines
antiviral activity against RNA viruses including HCV, Norovirus and RSV (HCV, Norovirus and RSV): potent antiviral activity
decline of serum WHsAg until the end of Formula (IIa) treatment [3, 5]: 1.49 log 10
reduction of mean serum WHV DNA from pretreatment level at the end of Formula (IIa) treatment [3, 5]: 3.54 log 10
weeks per approximately 1 log10 decline of serum WHV DNA ([3]; Formula (IIa) 30 mg/kg, initial 6 weeks of treatment, Group 2): ~3 weeks
seroconversion to anti-WHs antibodies and anti-WHe antibodies ([4]; 15 and 30 mg/kg, 12 weeks): not observed
hepatic expression scores of cytoplasmic WHcAg from pretreatment level [4, 6]: dose-dependent, transient reductions
scores of liver inflammation during the 12-week treatment period [4, 6]: unchanged or even reduced
delay in WHsAg rebound, high dose versus low dose ([4]; high dose 30 mg/kg): 1-7 week
delay in relapse of serum WHV DNA, high dose versus low dose ([4]; high dose 30 mg/kg): 2-4 weeks
time for serum WHV DNA to return to pretreatment level after withdrawal ([4]; high dose 30 mg/kg): 5-7 weeks
time for serum WHsAg to return to pretreatment level after the end of treatment ([4]; high dose 30 mg/kg): 6-8 weeks
weeks per approximately 1 log10 decline of serum WHV DNA ([4]; high dose 30 mg/kg daily oral): ~3 weeks
average reduction of serum WHV DNA at the end of treatment ([4]; high dose 30 mg/kg daily oral): 3.7 log10
maximum reduction of hepatic WHV DNA RI from pretreatment level ([4]; high dose 30 mg/kg): 38%
maximum reduction of hepatic WHV RNA from pretreatment level ([4]; high dose 30 mg/kg): 45%
maximum reduction of hepatic WHV cccDNA from pretreatment level ([4]; high dose 30 mg/kg): 25%
maximum reduction of serum WHsAg ([4]; high dose 30 mg/kg): 1.6 log10
time for serum WHV DNA to return to pretreatment level after withdrawal ([4]; low dose 15 mg/kg): 3-5 weeks
time for serum WHsAg to return to pretreatment level after completion of treatment ([4]; low dose 15 mg/kg): 1-5 weeks
weeks per approximately 1 log10 decline of serum WHV DNA ([4]; low dose 15 mg/kg daily oral): ~6 weeks
average reduction of serum WHV DNA at the end of treatment ([4]; low dose 15 mg/kg daily oral): 2.2 log10
maximum reduction of hepatic WHV DNA RI from pretreatment level ([4]; low dose 15 mg/kg): 19%
maximum reduction of hepatic WHV RNA from pretreatment level ([4]; low dose 15 mg/kg): 22%
maximum reduction of hepatic WHV cccDNA from pretreatment level ([4]; low dose 15 mg/kg): 16%
maximum reduction of serum WHsAg ([4]; low dose 15 mg/kg): 0.5 log10
